Measurements published in PubChem BioAssay AID1259407 (Chemical Carcinogenesis Research Information System (CCRIS), 2018).
Active and inactive are the calls of the source. The rule behind the calls is not given here.

Test system: CCRIS mutagenicity, Ames/micronucleus/aberration tests
Experiment: CCRIS mutagenicity studies
[1] = Test System: AMES SALMONELLA TYPHIMURIUM, Strain/Indicator: TA98, Metabolic Activation: NONE, Method: STANDARD PLATE
[2] = Test System: AMES SALMONELLA TYPHIMURIUM, Strain/Indicator: TA98, Metabolic Activation: RAT, LIVER, S-9, AROCLOR 1254, Method: STANDARD PLATE
[3] = Test System: AMES SALMONELLA TYPHIMURIUM, Strain/Indicator: TA100, Metabolic Activation: NONE, Method: STANDARD PLATE
[4] = Test System: AMES SALMONELLA TYPHIMURIUM, Strain/Indicator: TA100, Metabolic Activation: RAT, LIVER, S-9, AROCLOR 1254, Method: STANDARD PLATE
[5] = Test System: AMES SALMONELLA TYPHIMURIUM, Strain/Indicator: TA1535, Metabolic Activation: NONE, Method: STANDARD PLATE
[6] = Test System: AMES SALMONELLA TYPHIMURIUM, Strain/Indicator: TA1535, Metabolic Activation: RAT, LIVER, S-9, AROCLOR 1254, Method: STANDARD PLATE
[7] = Test System: AMES SALMONELLA TYPHIMURIUM, Strain/Indicator: TA1537, Metabolic Activation: NONE, Method: STANDARD PLATE
[8] = Test System: AMES SALMONELLA TYPHIMURIUM, Strain/Indicator: TA1537, Metabolic Activation: RAT, LIVER, S-9, AROCLOR 1254, Method: STANDARD PLATE
[9] = Test System: AMES SALMONELLA TYPHIMURIUM, Strain/Indicator: TA1538, Metabolic Activation: NONE, Method: STANDARD PLATE
[10] = Test System: AMES SALMONELLA TYPHIMURIUM, Strain/Indicator: TA1538, Metabolic Activation: RAT, LIVER, S-9, AROCLOR 1254, Method: STANDARD PLATE

## CC(C)n1c(/C=C/[C@H](O)C[C@H](O)CC(=O)O)c(-c2ccc(F)cc2)c2ccccc21
End Point: AMES SALMONELLA TYPHIMURIUM, Test System: TA98, Metabolic Activation: NONE, Method: STANDARD PLATE
  mutagenic call: inactive; negative
End Point: AMES SALMONELLA TYPHIMURIUM, Test System: TA98, Metabolic Activation: RAT, LIVER, S-9, AROCLOR 1254, Method: STANDARD PLATE
  mutagenic call: inactive; negative
End Point: AMES SALMONELLA TYPHIMURIUM, Test System: TA100, Metabolic Activation: NONE, Method: STANDARD PLATE
  mutagenic call: inactive; negative
End Point: AMES SALMONELLA TYPHIMURIUM, Test System: TA100, Metabolic Activation: RAT, LIVER, S-9, AROCLOR 1254, Method: STANDARD PLATE
  mutagenic call: inactive; negative
End Point: AMES SALMONELLA TYPHIMURIUM, Test System: TA1535, Metabolic Activation: NONE, Method: STANDARD PLATE
  mutagenic call: inactive; negative
End Point: AMES SALMONELLA TYPHIMURIUM, Test System: TA1535, Metabolic Activation: RAT, LIVER, S-9, AROCLOR 1254, Method: STANDARD PLATE
  mutagenic call: inactive; negative
End Point: AMES SALMONELLA TYPHIMURIUM, Test System: TA1537, Metabolic Activation: NONE, Method: STANDARD PLATE
  mutagenic call: inactive; negative
End Point: AMES SALMONELLA TYPHIMURIUM, Test System: TA1537, Metabolic Activation: RAT, LIVER, S-9, AROCLOR 1254, Method: STANDARD PLATE
  mutagenic call: inactive; negative
End Point: AMES SALMONELLA TYPHIMURIUM, Test System: TA1538, Metabolic Activation: NONE, Method: STANDARD PLATE
  mutagenic call: inactive; negative
End Point: AMES SALMONELLA TYPHIMURIUM, Test System: TA1538, Metabolic Activation: RAT, LIVER, S-9, AROCLOR 1254, Method: STANDARD PLATE
  mutagenic call: inactive; negative
End Point: E. COLI, Test System: WP2 UVRA/PKM101, Metabolic Activation: NONE, Method: STANDARD PLATE
  mutagenic call: inactive; negative
End Point: E. COLI, Test System: WP2 UVRA/PKM101, Metabolic Activation: RAT, LIVER, S-9, AROCLOR 1254, Method: STANDARD PLATE
  mutagenic call: inactive; negative
End Point: E. COLI, Test System: WP2 UVRA, Metabolic Activation: NONE, Method: STANDARD PLATE
  mutagenic call: inactive; negative
End Point: E. COLI, Test System: WP2 UVRA, Metabolic Activation: RAT, LIVER, S-9, AROCLOR 1254, Method: STANDARD PLATE
  mutagenic call: inactive; negative
End Point: IN VITRO CHROMOSOMAL ABERRATIONS, Test System: CHINESE HAMSTER V79A, Metabolic Activation: NONE
  mutagenic call: inactive; negative
End Point: IN VITRO CHROMOSOMAL ABERRATIONS, Test System: CHINESE HAMSTER V79A, Metabolic Activation: RAT, LIVER, S-9, AROCLOR 1254
  mutagenic call: inactive; negative
End Point: IN VIVO MICRONUCLEUS, Test System: BONE MARROW POLYCHROMATIC ERYTHROCYTES, Species: MOUSE, Strain/Sex: CD-1/MALE, FEMALE, Route: GAVAGE
  mutagenic call: inactive; negative
[1]
  mutagenic call: inactive; negative
[2]
  mutagenic call: inactive; negative
[3]
  mutagenic call: inactive; negative
[4]
  mutagenic call: inactive; negative
[5]
  mutagenic call: inactive; negative
[6]
  mutagenic call: inactive; negative
[7]
  mutagenic call: inactive; negative
[8]
  mutagenic call: inactive; negative
[9]
  mutagenic call: inactive; negative
[10]
  mutagenic call: inactive; negative
Test System: CHINESE HAMSTER FIBROBLASTS, Strain/Indicator: CHINESE HAMSTER V79A/HGPRT, Metabolic Activation: NONE
  mutagenic call: inactive; negative
Test System: CHINESE HAMSTER FIBROBLASTS, Strain/Indicator: CHINESE HAMSTER V79A/HGPRT, Metabolic Activation: RAT, LIVER, S-9, AROCLOR 1254
  mutagenic call: inactive; negative
Test System: CHINESE HAMSTER V-79, Strain/Indicator: V-79 (HGPRT), Metabolic Activation: NONE
  mutagenic call: inactive; negative
Test System: CHINESE HAMSTER V-79, Strain/Indicator: V-79 (HGPRT), Metabolic Activation: RAT, LIVER, S-9, AROCLOR 1254
  mutagenic call: inactive; negative
Test System: E. COLI, Strain/Indicator: WP2 UVRA (PKM101), Metabolic Activation: NONE, Method: STANDARD PLATE
  mutagenic call: inactive; negative
Test System: E. COLI, Strain/Indicator: WP2 UVRA (PKM101), Metabolic Activation: RAT, LIVER, S-9, AROCLOR 1254, Method: STANDARD PLATE
  mutagenic call: inactive; negative
Test System: E. COLI, Strain/Indicator: WP2 UVRA, Metabolic Activation: NONE, Method: STANDARD PLATE
  mutagenic call: inactive; negative
Test System: E. COLI, Strain/Indicator: WP2 UVRA, Metabolic Activation: RAT, LIVER, S-9, AROCLOR 1254, Method: STANDARD PLATE
  mutagenic call: inactive; negative

## CCCCC(=O)Nc1snc2ccc(Cl)cc12
[3]
  mutagenic call: inactive; negative
Test System: AMES SALMONELLA TYPHIMURIUM, Strain/Indicator: TA100, Metabolic Activation: S-9, Method: STANDARD PLATE
  mutagenic call: inactive; negative
[7]
  mutagenic call: inactive; negative
Test System: AMES SALMONELLA TYPHIMURIUM, Strain/Indicator: TA1537, Metabolic Activation: S-9, Method: STANDARD PLATE
  mutagenic call: inactive; negative

## Cc1cc2ccccc2c2ccc3c(c12)[C@H]1O[C@H]1[C@@H](O)[C@@H]3O
Test System: AMES SALMONELLA TYPHIMURIUM, Strain/Indicator: TA100, Metabolic Activation: NONE, Method: PREINCUBATION
  mutagenic call: active; positive

## C=C(C)C(=O)OCCO
Test System: AMES SALMONELLA TYPHIMURIUM, Strain/Indicator: TA97A, Metabolic Activation: NONE, Method: STANDARD PLATE
  mutagenic call: inactive; negative
[1]
  mutagenic call: inactive; negative
[2]
  mutagenic call: inactive; negative
Test System: AMES SALMONELLA TYPHIMURIUM, Strain/Indicator: TA98, Metabolic Activation: RAT, LIVER, S-9, SODIUM PHENOBARBITAL, Method: STANDARD PLATE
  mutagenic call: inactive; negative
[3]
  mutagenic call: inactive; negative
[4]
  mutagenic call: inactive; negative
Test System: AMES SALMONELLA TYPHIMURIUM, Strain/Indicator: TA100, Metabolic Activation: RAT, LIVER, S-9, SODIUM PHENOBARBITAL, Method: STANDARD PLATE
  mutagenic call: inactive; negative
Test System: AMES SALMONELLA TYPHIMURIUM, Strain/Indicator: TA102, Metabolic Activation: NONE, Method: STANDARD PLATE
  mutagenic call: inactive; negative
Test System: AMES SALMONELLA TYPHIMURIUM, Strain/Indicator: TA104, Metabolic Activation: NONE, Method: STANDARD PLATE
  mutagenic call: inactive; negative
[5]
  mutagenic call: inactive; negative
[6]
  mutagenic call: inactive; negative
Test System: AMES SALMONELLA TYPHIMURIUM, Strain/Indicator: TA1535, Metabolic Activation: RAT, LIVER, S-9, SODIUM PHENOBARBITAL, Method: STANDARD PLATE
  mutagenic call: inactive; negative
[7]
  mutagenic call: inactive; negative
[8]
  mutagenic call: inactive; negative
Test System: AMES SALMONELLA TYPHIMURIUM, Strain/Indicator: TA1537, Metabolic Activation: RAT, LIVER, S-9, SODIUM PHENOBARBITAL, Method: STANDARD PLATE
  mutagenic call: inactive; negative
[9]
  mutagenic call: inactive; negative
[10]
  mutagenic call: inactive; negative
Test System: AMES SALMONELLA TYPHIMURIUM, Strain/Indicator: TA1538, Metabolic Activation: RAT, LIVER, S-9, SODIUM PHENOBARBITAL, Method: STANDARD PLATE
  mutagenic call: inactive; negative
Test System: CHINESE HAMSTER V-79, Strain/Indicator: V79 (HPRT)/6-THIOGUANINE, Metabolic Activation: NONE
  mutagenic call: inactive; negative
